Laboratory results reported in patent US8846768B2, “Use of compounds isolated from Euphorbia neriifolia for treating cancer and/or thrombocytopenia” (Mackay Memorial Hospital, priority 2012, dated 2014).

Assays:
[1] = test system: human chronic myelogenous leukemia (CML) K562 cells; experiment: MTT cell viability, growth inhibition on chronic myelogenous leukemia cells; assay type: cell-based; settings: for Inhibition (%): 10 μM, K562 cells; for ex vivo growth of CML cells suppressed: about 10 μM, time not stated
Protocol: (§1) Cell lines used in the present disclosure include human chronic is myelogenous leukemia (CML) cell line K562, erythroleukemia HEL cells, human pancreatic carcinoma epithelial-like cell line PANC-1, human esophageal squamous cell carcinoma line 81T/VGH, human esophageal adenocarcinoma line BE-3 and human esophageal adenocarcinoma cell line SKGT4. Each cell lines were cultured and maintained in Dulbecco's modified Eagle media (DMEM) supplemented with 10% fetal calf serum, 100 IU/ml penicillin, 100 μg/ml streptomycin, and 2 mM glutamine in 5% CO2 at 37° C.
(§2) The absorbance of the solution at 570 nm was measured by spectrophotometer.
Effects of the compounds of formula (I) or (II) of this disclosure, particularly, EN 22, EN 26, and EN 28, on K562 cells were assessed by cell viability analysis in accordance with procedures described above.

[2] = test system: human esophageal squamous 81T/VGH cells; experiment: MTT cell viability, growth inhibition on esophageal squamous cells; assay type: cell-based; settings: for Inhibition (%): 81T/VGH cells; for ex vivo growth of esophageal cancerous cells inhibited: time not stated
Protocol: as §1, §2
Effects of the compounds of formula (I) of this disclosure, particularly, EN 22, EN 24, and EN 25, on 81T/VGH cells were assessed by cell viability analysis in accordance with procedures described above.

[3] = test system: human esophageal squamous 81T/VGH xenograft tumor; experiment: Tumor size in animals grafted with 81T/VGH cancer cells; assay type: in vivo, Athymic BALB/c-nu nude mice; settings: FIG. 1
Protocol: For inoculated tumor model, 1×10^5 81T/VGH cells were injected subcutaneously to lab animals to generate s.c. tumors (5×10^5 cells per injection) on day 1. The needle hole was sealed with an electric coagulator (Aaron, Petersburg, Fla., USA) immediately after the withdrawal of the needle to avoid leakage of the injected substance. The incision was subsequently sutured.
Results are depicted in FIGS. 1 to 3, respectively.

[4] = Body weight of tumor-bearing treated animals; settings: EN 22 alone, FIG. 2
Protocol: (§7) Athymic BALB/c-nu nude mice (4 weeks old) were obtained from the National Laboratory Animal Center (Taipei, Taiwan) and were kept in a pathogen-free facility with ad libitum access to water and laboratory chow. A solution of 81T/VGH cells was injected into the subcutaneous tissue to establish a xenograft tumor.
Tumor sizes were measured using calipers, and tumor volume was calculated using the formula: volume=width^2×length×0.52.
(§8) Mice were inoculated with esophageal squamous tumor cells in accordance with the procedures described above. For in vivo therapy, animals were given 2 mg/Kg cisplatin intraperitoneally, in the presence or absence of 20 mg/Kg EN 22, which was given orally, for a period of at least 4 weeks. Tumor size, body weight, white blood cell count, and liver function of each animal were then measured respectively at the indicated time.

[5] = White blood cell counts, liver or kidney function of treated animals; settings: EN 22 25 or 50 mg/Kg, FIG. 3
Protocol: as §7
After treatment, mice were sacrificed and their white blood cells (WBC) counts were measured. Tumor burdens were determined by the total volume of all the tumor nodules with diameter greater than 3 mm.
as §8

[6] = test system: human erythroleukemia (HEL) cells; experiment: In vitro growth inhibition of HEL cells; assay type: cell-based
Protocol: as §1, §2

K562 cells = experiment: Megakaryocyte formation, morphology by Liu's staining, K562; assay type: cell-based, human; settings: 10 μM, 9 days, FIG. 6
Protocol: (§3) Cells were transferred to a glass coverslide and covered with solution A (0.5 g of methylene blue and 1.7 g of Eosin yellow dissolved in 1,000 ml of ethanol). After 45 seconds, solution B (1.3 g of azure, 1.4 g of methylene blue, 23.38 g of Na2HPO4, 6.5 g of KH2PO4, dissolved in 1,000 ml of distilled water) was added in the proportion of 2 parts of B to 1 part of A. Mixed the solutions well by blowing the surface. The slide was left standing for 90 seconds and then washed off the staining solution rapidly by running water. The morphology of stained cells was then examined by observation under microscope.
(§4) Megarkaryocytopoiesis is a process by which bone marrow progenitor cells develop into mature megakaryocytes, which in turn produce platelets required for normal hemostasis.

HEL cells [7] = experiment: Megakaryocyte formation, morphology by Liu's staining, HEL; assay type: cell-based, human; settings: 10 μM, 5 days, FIG. 7
Protocol: as §3, §4

HEL cells [8] = experiment: Cell cycle analysis by flow cytometry; assay type: cell-based, human; settings: FIG. 8
Protocol: Cultured cells with or without pre-treatment of the compounds of this invention (i.e., the compound of formula (I) or (II)) were harvested from the cultured media and fixed by incuating with 75% iced cold ethanol at 4° C. for at least over night. The fixed cells were then warmed up to room temperature and treated with RNAase A for about 30 min. Precipitated cells were collected by centrifugation and re-suspended in a buffer solution containing propidium iodine (20 μg/ml) before being subject to flow cytometry analysis, where cell numbers at respective cell cycles were determined.

[9] = test system: stat3 and phosphorylated stat3; experiment: Immunoblot of stat3 and phosphorylated stat3 in K562 cells; assay type: cell-based, human; settings: compared with control, FIG. 9
Protocol: (§5) Cultured cells were lysed by use of well known lysing buffer, and total amount of proteins were determined by Bradford method. The extracted raw proteins (about 50-100 μg) were loaded to […] sodium dodecyl sulfate polyacrylamide gel, and proteins therein were separated by electrophoresis. The separated proteins were then transferred to nitrocellulose membrane and non-specific binding was removed by TBST buffer (0.8% NaCl, 0.02% KCl, 25 mM Tris-HCl/pH 8.0 and 0.1% Tween-20) containing 4% skim milk. Antibodies including p-Jak2, Jak2, p-stat3-2, stat3, p-stat5, stat5, and GAPDH (purchased from Transduction Laboratories, Lexington, Ky., USA), were respectively dissolved in TBST buffer containing 2% skim milk and incubated with the separated protein bands at 4° C. for at least over night; followed by incubation with horseradish conjugated secondary antibodies at room temperature for about 30 min, and then detected by ECL chemiluminesance detection kit (Amersham Pharmacia Biotech, US).
(§6) The induction of K562 cells or HEL cells to form megakaryocytes was further investigated by measuring the expressed level of its regulatory proteins such as, stat3 and phosphorylated stat3.

[10] = test system: stat3 and phosphorylated stat3; experiment: Immunoblot of stat3 and phosphorylated stat3 in HEL cells; assay type: cell-based, human; settings: compared with control, FIG. 9
Protocol: as §5, §6

HEL cells [11] = experiment: STAT3 RNAi assay, megakaryocytic differentiation after Stat3 knockdown; assay type: cell-based, human; settings: Stat3 small interference RNA, FIG. 10
Text: The murine stat3 target sequence from positions 134 to 158 (5′-TGGCCCAATGGAATCAGCTACAGCA-3′ (SEQ ID NO: 1)) was selected for the preparation of stat3 siRNA (5′-UGGCCCAAUGGAAUCAGCUACAGCA-3′ (SEQ ID NO: 2)). Scrambled RNAs were employed as a negative control and were synthesized by PCR-derived siRNA expression cassettes according to the manufacturer's instructions and were then cloned into pSEC™ hygro plasmid (Ambion).
[…] HEL cells were transfected with the plasmids (i.e., plasmids containing the nucleic acid for the stat3 siRNA or scramble RNAs) described above with the aid of the lipofectamine 2000 (Invitrogen, Carisbad, Calif. USA). Specifically, 5 μg pSEC™ hygro plasmid contained murine stat3 siNAs and 9 μl lipofectamine 2000 were allowed to form complexes in a period of 25 min at room temperature in antibiotic-free DMEM medium. The complexes were then added to HEL cells maintained and cultured in 6-well dishes and further incubated for another 24 hrs. For the selection of cells with high expression rate of siRNA, stable clones of murine stat3 siRNA expressed cells and negative control siRNA (i.e., scrambled RNA) were selected by use of 500 μg/ml hygromycin contained medium, and the selected clones were maintained in 250 ? μg/ml hygromycin contained medium. […]

[12] = test system: CD61 and CD235a in HEL cells; experiment: Flow cytometric analysis of CD61 and CD235a expression; assay type: cell-based, human; settings: 5 μM
Text: The induction of megakaryocytic differentiation may also be confirmed by the measurement of the differentiation markers CD61 and CD235a expressed on the erythrocyte membrane during the differentiation stage.

normal bone marrow cells = experiment: Induction and proliferation of megakaryocytes from normal bone marrow cells; assay type: cell-based; settings: 1.25 μM, FIG. 12

CC=C(C)C(=O)OC1C(OC(C)=O)C(C)=CC23OC2(CC(C)C3OC(C)=O)C(=O)C(C)C(OC(C)=O)C2C1C2(C)C (centres unmarked) [EN 26, 3,7,12-O-Triacetyl-8-O-tigioylingol]
Inhibition (%) ([1]; 24 hrs): 12.74% | Inhibition (%) ([1]; 48 hrs): 30.38% | Inhibition (%) ([1]; 72 hrs): 42.35% | ex vivo growth of CML cells suppressed [1]: about 40%

CC1C(O)CCC2C1(C)CCC1C2(C)CCC2(C)C3CC(C)(C)CCC3(C)CCC12C (stereo not drawn) [EN 25, 3α-Friedelinol]
Inhibition (%) ([2]; 1 μM, 24 hrs): 49.45% | Inhibition (%) ([2]; 1 μM, 48 hrs): 39.99% | Inhibition (%) ([2]; 10 μM, 24 hrs): 61.74% | Inhibition (%) ([2]; 10 μM, 48 hrs): 62.55% | ex vivo growth of esophageal cancerous cells inhibited ([2]; about 1 μM): about 50% | ex vivo growth of esophageal cancerous cells inhibited ([2]; about 10 μM): about 60%

CC1C(O)CCC2C1(C)CCC1C2(C)CCC2(C)C3CC(C)(C)CCC3(C)CCC12C (stereo not drawn) [EN 22, 3β-Friedelinol]
Inhibition (%) ([2]; 1 μM, 24 hrs): 51.98% | Inhibition (%) ([2]; 1 μM, 48 hrs): 41.42% | Inhibition (%) ([2]; 10 μM, 24 hrs): 58.03% | Inhibition (%) ([2]; 10 μM, 48 hrs): 58.61% | ex vivo growth of esophageal cancerous cells inhibited ([2]; about 1 μM): about 50% | ex vivo growth of esophageal cancerous cells inhibited ([2]; about 10 μM): about 60% | tumor size (growth of tumor) ([3]; EN 22 orally, 20 and 50 mg/Kg): able to suppress the growth of the tumor in a dose dependent manner | Inhibition (%) ([1]; 48 hrs): 39.32% | Inhibition (%) ([1]; 72 hrs): 45.38% | ex vivo growth of CML cells suppressed [1]: about 45% | body weight loss [4]: free from the “weight lost” problem | white blood cell (WBC) counts [5]: did not affect the number of WBC

N.N.[Cl][Pt][Cl] [cisplatin, reference compound]
tumor size (growth of tumor) ([3]; cisplatin 2 mg/Kg intraperitoneally): capable of suppressing the growth of tumor during the entire treatment period

CC1(C)CC[C@]2(C)CC=C3[C@]4(C)CC[C@H]5C(C)(C)[C@@H](O)CC[C@]5(C)[C@H]4CC[C@@]3(C)[C@@H]2C1 [EN 24, 3β-Taraxerol]
Inhibition (%) ([2]; 1 μM, 24 hrs): 49.15% | Inhibition (%) ([2]; 1 μM, 48 hrs): 43.47% | Inhibition (%) ([2]; 10 μM, 24 hrs): 63.99% | Inhibition (%) ([2]; 10 μM, 48 hrs): 57.10%

CC=C(C)C(=O)OC1C(C)=CC23OC2(CC(C)C3OC(C)=O)C(=O)C(C)C(OC(C)=O)C2C(C1OC)C2(C)C (centres unmarked) [EN 28, 3,12-O-Diacetyl-7-O-angeloyl-8-methoxyingol]
Inhibition (%) ([1]; 48 hrs): 44.85% | ex vivo growth of CML cells suppressed [1]: about 50% | in vitro growth of HEL cells inhibited ([6]; 5 μM): about 55% | in vitro growth of HEL cells inhibited ([6]; 10 μM): about 60% | in vitro growth of HEL cells inhibited ([6]; about 2.5 μM): about 40% | morphology change, formation of megakaryocytes (K562 cells): cells started to fuse and form megakaryocytes | morphology change, differentiation into megakaryocytes (HEL cells [7]): induces the differentiation of HEL cells into megakaryocytes | cell cycle analysis (HEL cells [8]): capable of inducing the generation of new population of cells | level of phosphorylated stat-3 [9]: increased | level of stat3 [9]: increased | level of phosphorylated stat-3 [10]: increased | level of stat3 [10]: increased | induction of megakaryocytic differentiation after knockdown of Stat3 (HEL cells [11]): partially reversed | effect of Stat3 knockdown on CD61 and CD235a changes ([12]; HEL cells with siStat3, FIG. 11): not antagonized | CD61 expression ([12]; HEL cells, FIG. 11): up-regulation | CD235a expression ([12]; HEL cells, FIG. 11): down-regulation | proliferation and differentiation into megakaryocytes (normal bone marrow cells): capable of inducing the proliferation and subsequently, the differentiation of the proliferated normal bone marrow cells into megakaryocytes
